Experimental data: patent US20210198277A1, “AMINE-SUBSTITUTED ARYL OR HETEROARYL COMPOUNDS” (Epizyme, Inc., priority 2016, published 2021)
Like-named read-outs stand apart in the source and are kept apart here.

Assays:
human EHMT2 913-1193 = biological target: T1, human EHMT2 913-1193 (Homo sapiens, UniProt Q96KQ7); test: EHMT2 enzyme assay on histone peptide substrate (EHMT2 PEP); type: biochemical; conditions: read-out: EHMT2 PEP (IC50 μM)
T1 construct: recombinant purified human EHMT2 913-1193, Viva; purchased Viva
T1 sequence (Q96KQ7 913-1193): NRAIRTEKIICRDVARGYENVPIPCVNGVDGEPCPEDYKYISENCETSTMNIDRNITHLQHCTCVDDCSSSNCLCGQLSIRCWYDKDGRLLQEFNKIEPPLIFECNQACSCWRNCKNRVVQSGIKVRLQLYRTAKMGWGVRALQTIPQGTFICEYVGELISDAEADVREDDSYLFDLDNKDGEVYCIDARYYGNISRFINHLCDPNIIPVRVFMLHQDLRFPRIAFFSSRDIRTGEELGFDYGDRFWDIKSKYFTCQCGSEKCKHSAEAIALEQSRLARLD
Procedure, shortened: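 Compounds (10-point, 3-fold dilutions, top 50 μM final, 2% DMSO) preincubated 30 min with 0.031 nM EHMT2 in 20 mM Bicine pH 7.5, 0.002% Tween 20, 0.005% gelatin, 1 mM TCEP. Biotinylated histone peptide methylated with ^3H-SAM 60 min at room temperature. Quenched with unlabeled SAM; product captured on streptavidin Flashplate, scintillation counted.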

EHMT1 = biological target: T2, EHMT1 (Homo sapiens, UniProt Q9H9B1); test: EHMT1 enzyme assay on peptide substrate (EHMT1 PEP); type: biochemical; conditions: read-out: EHMT1 PEP (IC50 μM)
T2 sequence (Q9H9B1 1-1298): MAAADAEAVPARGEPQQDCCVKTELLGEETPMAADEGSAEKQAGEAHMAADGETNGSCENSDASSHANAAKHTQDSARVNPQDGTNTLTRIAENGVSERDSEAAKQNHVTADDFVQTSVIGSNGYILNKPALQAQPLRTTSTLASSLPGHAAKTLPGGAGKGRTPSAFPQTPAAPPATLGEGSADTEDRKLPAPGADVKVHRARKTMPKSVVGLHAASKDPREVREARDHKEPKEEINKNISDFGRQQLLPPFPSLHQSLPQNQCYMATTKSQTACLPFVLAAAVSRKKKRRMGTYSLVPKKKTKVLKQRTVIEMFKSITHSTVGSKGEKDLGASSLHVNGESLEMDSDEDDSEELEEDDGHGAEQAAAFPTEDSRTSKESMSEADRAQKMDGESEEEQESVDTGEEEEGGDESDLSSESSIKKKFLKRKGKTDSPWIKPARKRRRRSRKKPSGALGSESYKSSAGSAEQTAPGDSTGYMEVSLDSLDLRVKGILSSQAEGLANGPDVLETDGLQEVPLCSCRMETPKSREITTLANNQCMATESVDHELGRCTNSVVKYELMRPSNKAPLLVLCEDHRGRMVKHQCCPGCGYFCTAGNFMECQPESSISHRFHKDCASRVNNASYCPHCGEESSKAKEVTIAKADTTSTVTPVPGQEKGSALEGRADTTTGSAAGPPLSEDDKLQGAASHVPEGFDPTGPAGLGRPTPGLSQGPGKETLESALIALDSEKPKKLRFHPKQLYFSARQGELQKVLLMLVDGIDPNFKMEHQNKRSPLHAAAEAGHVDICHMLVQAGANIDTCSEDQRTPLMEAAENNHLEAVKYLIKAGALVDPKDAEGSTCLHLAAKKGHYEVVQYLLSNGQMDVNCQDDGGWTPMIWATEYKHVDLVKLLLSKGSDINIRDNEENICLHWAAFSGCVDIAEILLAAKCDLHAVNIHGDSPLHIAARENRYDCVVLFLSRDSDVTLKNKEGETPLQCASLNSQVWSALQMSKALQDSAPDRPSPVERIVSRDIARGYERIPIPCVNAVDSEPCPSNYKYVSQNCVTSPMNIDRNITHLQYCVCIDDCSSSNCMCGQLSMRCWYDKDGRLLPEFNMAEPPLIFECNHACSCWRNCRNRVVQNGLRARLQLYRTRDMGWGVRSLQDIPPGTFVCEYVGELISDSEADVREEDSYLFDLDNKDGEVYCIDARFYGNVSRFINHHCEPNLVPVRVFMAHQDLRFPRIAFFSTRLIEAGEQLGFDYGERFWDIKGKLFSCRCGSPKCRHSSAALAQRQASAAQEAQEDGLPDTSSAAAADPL

Row | IC50 (human EHMT2 913-1193; Table III) [µM] | IC50 (EHMT1; Table III) [µM] | IC50 (human EHMT2 913-1193; Table II) [µM] | IC50 (EHMT1; Table II) [µM] | Structure (SMILES)
1 | 0.1 to 1 | 0.1 to 1 | – | – | CNc1cc(C)nc(Nc2ccc(OC)c(OCC3CCCN(C)C3)c2)n1 (stereo not shown) [Compound 413, N^2-(4-methoxy-3-((1-methylpiperidin-3-yl)methoxy)phenyl)-N^4,6-dimethylpyrimidine-2,4-diamine]
2 | > 10 | > 10 | – | – | CNc1cc(OC)nc(Nc2ccc(OC)c(OCCCN3CCCC3)c2)n1 [Compound 261, 6-methoxy-N^2-(4-methoxy-3-(3-(pyrrolidin-1-yl)propoxy)phenyl)-N^4-methylpyrimidine-2,4-diamine]
3 | < 0.1 | < 0.1 | – | – | CNc1ccnc(Nc2ccc(OC)c(OCCCN3CC(O)C3)c2)n1 [Compound 414, 1-(3-(2-methoxy-5-((4-(methylamino)pyrimidin-2-yl)amino)phenoxy)propyl)azetidin-3-ol]
4 | > 10 | > 10 | – | – | COc1ccc(Nc2ccc3cn(C)nc3n2)cc1OCCCN1CCCC1 [Compound 402]
5 | 0.1 to 1 | 0.1 to 1 | – | – | CNc1ccnc(Nc2ccc(Cl)c(OCCCN3CCCC3)c2)n1 [Compound 398]
6 | < 0.1 | < 0.1 | – | – | CNc1cc(Nc2cc(OCCCN3CCCC3)c(OC)cn2)ccn1 [Compound 372]
7 | 0.1 to 1 | 0.1 to 1 | – | – | COc1ccc(Nc2nccc(NC(C)C3CCOCC3)n2)cc1OCCCN1CCCC1 (stereo not shown) [Compound 378]
8 | > 10 | > 10 | – | – | CNc1cc(C(F)(F)F)nc(Nc2ccc(OC)c(OCCCN3CCCC3)c2)n1 [Compound 362]
9 | 0.1 to 1 | 0.1 to 1 | – | – | CCc1cc(NC)nc(Nc2ccc(OC)c(OCCCN3CC[C@@H](F)C3)c2)n1 [Compound 385]
10 | 0.1 to 1 | 0.1 to 1 | – | – | CNc1cc(C)nc(Nc2ccc(OC)c(COC3CCN(C)C3)c2)n1 (stereo not shown) [Compound 421, N^2-(4-methoxy-3-(((1-methylpyrrolidin-3-yl)oxy)methyl)phenyl)-N^4,6-dimethylpyrimidine-2,4-diamine]
11 | < 0.1 | < 0.1 | – | – | CNc1ccnc(Nc2ccc(OC)c(OCC3CCN(C4CC4)C3)c2)n1 (stereo not shown) [Compound 411, N^2-(3-((1-cyclopropylpyrrolidin-3-yl)methoxy)-4-methoxyphenyl)-N^4-methylpyrimidine-2,4-diamine]
12 | 0.1 to 1 | 0.1 to 1 | – | – | COc1ccc(Nc2nccc(NCC(F)(F)F)n2)cc1OCCCN1CCCC1 [Compound 392]
13 | – | – | 1 to 10 | 1 to 10 | COc1ccc(Nc2nccc(N3Cc4cn[nH]c4C3)n2)cc1OCCCN1CCCC1 [Compound 53]
14 | – | – | 0.1 to 1 | 0.1 to 1 | COc1ccc(Nc2nccc(NC3CCN(C(C)=O)CC3)n2)cc1OCCCN1CCCC1 [Compound 54]
15 | > 10 | > 10 | – | – | CNc1ccnc(Nc2ccc3c(c2)C(=O)N(CCN2CCCC2)CC3)n1 [Compound 264, 7-((4-(methylamino)pyrimidin-2-yl)amino)-2-(2-(pyrrolidin-1-yl)ethyl)-3,4-dihydroisoquinolin-1(2H)-one]
16 | 0.1 to 1 | 0.1 to 1 | – | – | CNc1cnnc(Nc2ccc(OC)c(OCCCN3CCCC3)c2)c1 [Compound 370]
17 | 0.1 to 1 | 0.1 to 1 | – | – | CNc1ccnc(Nc2ccc(OC)c(OCCCN3CCCCC3)c2)n1 [Compound 390]
18 | 0.1 to 1 | 0.1 to 1 | – | – | CNc1ccnc(Nc2ccc(OC)c(OCC3CCN(CC4CC4)C3)c2)n1 (stereo not shown) [Compound 422, N^2-(3-((1-(cyclopropylmethyl)pyrrolidin-3-yl)methoxy)-4-methoxyphenyl)-N^4-methylpyrimidine-2,4-diamine]
19 | 1 to 10 | 1 to 10 | – | – | CNc1ccnc(Nc2ccc(OC)c(OC[C@H](O)CN3CCCC3)c2)n1 (single isomer, unassigned) [Compound 376]

Row | IC50 (human EHMT2 913-1193; Table III) [µM] | IC50 (EHMT1; Table III) [µM] | IC50 (human EHMT2 913-1193; Table II) [µM] | IC50 (EHMT1; Table II) [µM] | Structure (SMILES)
20 | 1 to 10 | 1 to 10 | – | – | COc1ccc(Nc2nccc3[nH]ccc23)cc1OCCCN1CCCC1 [Compound 266, N-(4-methoxy-3-(3-(pyrrolidin-1-yl)propoxy)phenyl)-1H-pyrrolo[3,2-c]pyridin-4-amine]
21 | < 0.1 | < 0.1 | – | – | CNc1ccnc(Nc2ccc(OC)c(OCC3CCN(C)C3)c2)n1 (single isomer, unassigned) [Compound 416]
22 | 1 to 10 | 1 to 10 | – | – | CNc1ccnc(Nc2ccc(OC)c(OCC3CCN(CCOC)C3)c2)n1 (stereo not shown) [Compound 410, N^2-(4-methoxy-3-((1-(2-methoxyethyl)pyrrolidin-3-yl)methoxy)phenyl)-N^4-methylpyrimidine-2,4-diamine]
23 | > 10 | > 10 | – | – | COc1ccc(Nc2nccc3[nH]ncc23)cc1OCCCN1CCCC1 [Compound 373]
24 | > 10 | > 10 | – | – | CNc1ccnc(Nc2cccc(N3CCC(N(C)C)C3)c2)n1 (stereo not shown) [Compound 397]
25 | – | – | 0.1 to 1 | 0.1 to 1 | COc1ccc(Nc2ncc(C)c(NCC3CCN(C(C)=O)CC3)n2)cc1OCCCN1CCCC1 [Compound 55]
26 | 1 to 10 | 1 to 10 | – | – | CNc1cncc(Nc2ccc(OC)c(OCCCN3CCCC3)c2)n1 [Compound 371]
27 | 1 to 10 | > 10 | – | – | CNc1ccnc(Nc2ccc(OC)c(OC[C@@H](O)CN3CCCC3)c2)n1 (single isomer, unassigned) [Compound 377]
28 | > 10 | > 10 | – | – | CCNC(=O)c1cc(Nc2nccc(NC)n2)ccc1OC [Compound 395]
29 | 1 to 10 | 1 to 10 | – | – | COc1ccc(Nc2cnnc(NCC3CCN(C(C)=O)CC3)c2)cc1OCCCN1CCCC1 [Compound 366]
30 | > 10 | > 10 | – | – | CCNC(=O)c1cccc(Nc2nccc(NC)n2)c1 [Compound 394]
31 | 0.1 to 1 | 0.1 to 1 | – | – | CNc1ccnc(Nc2ccc(OC)c(OCC3CCCN(C)C3)c2)n1 (stereo not shown) [Compound 412, N^2-(4-methoxy-3-((1-methylpiperidin-3-yl)methoxy)phenyl)-N^4-methylpyrimidine-2,4-diamine]
32 | – | – | < 0.1 | < 0.1 | COc1ccc(Nc2nccc(NCC3CCN(CC(F)F)CC3)n2)cc1OCCCN1CCCC1 [Compound 2, N^4-((1-(2,2-difluoroethyl)piperidin-4-yl)methyl)-N^2-(4-methoxy-3-(3-(pyrrolidin-1-yl)propoxy)phenyl)pyrimidine-2,4-diamine]
33 | – | – | 0.1 to 1 | 0.1 to 1 | c1cc(Nc2nccc(NCC3CCNCC3)n2)cc(OCCCN2CCCC2)c1 [Compound 88]
34 | 0.1 to 1 | 0.1 to 1 | – | – | CCCN1CCC(COc2cc(Nc3nccc(NC)n3)ccc2OC)C1 (stereo not shown) [Compound 420, N^2-(4-methoxy-3-((1-propylpyrrolidin-3-yl)methoxy)phenyl)-N^4-methylpyrimidine-2,4-diamine]
35 | < 0.1 | < 0.1 | – | – | CNc1cc(C)nc(Nc2ccc(OC)c(OCC3CCN(C)C3)c2)n1 (single isomer, unassigned) [Compound 418]
36 | 1 to 10 | 1 to 10 | – | – | CNc1ccnc(Nc2cccc(COCCN3CCCC3)c2)n1 [Compound 383]
37 | – | – | 1 to 10 | 1 to 10 | COc1ccc(Nc2nccc(NCC3CCN(C(C)=O)CC3)n2)cc1COCCN1CC(F)C1 [Compound 57]
38 | 0.1 to 1 | 0.1 to 1 | – | – | CNc1cc(C)nc(Nc2cccc(OCCCN3CCCC3)c2)n1 [Compound 391]
